Source: a melting point compilation (Tetko et al.; mined from patent text by program, amines drawn as free bases though some values may be those of a salt)

Row | melting point [°C] | SMILES
1 | 190 to 196 | Nc1nc(=O)n(CCCN2CCN(C(c3ccccc3)c3ccccc3)CC2)c2ccccc12
2 | 195 to 197 | NC(=O)C1CCc2ccc(C(=O)c3ccccc3)cc21 (centres undefined)
3 | 134 to 135 | NS(=O)(=O)c1ccc(C2=C(c3ccc(Cl)c(Cl)c3)CCC2)cc1
4 | 105 to 107 | CCCOCCOc1ccc(-c2ccc3c(c2)C=C(C(=O)OC)CCS3(=O)=O)cc1
5 | 136 to 138 | O=C(O)C(CC(=O)N1Cc2ccc(F)cc2C1)Cc1ccccc1 (centres undefined)
6 | 148 to 149 | COc1ccc([N+](=O)[O-])c(-c2cc(OC)ccc2[N+](=O)[O-])c1
7 | 185 to 187 | Cc1ccc(Cl)c(Nc2ccccc2C(N)=O)c1Cl
8 | 200 to 202 | CNc1nc(-c2cccc(-c3cncc(-c4ccccc4)c3)c2)c2cc(OC)c(OC)cc2n1
9 | 133 to 134 | COC(=O)c1ccc(OCCc2nc(-c3ccccc3)oc2C)cc1O
10 | 215 to 217 | Cc1ccsc1-n1ncc(-c2ccc(S(C)(=O)=O)cc2)c(-c2ccc(F)cc2)c1=O
11 | 153 to 157 | Cc1cc(NC(=O)C(CSC(=O)CC(C)C)Cc2ccccc2)cc(C(=O)O)c1 (centres undefined)
12 | 189 to 191 | c1ccc(-c2ccc(Nc3nnc(Cc4ccncc4)c4ccccc34)cc2)cc1
13 | 210 to 213 | CCc1nc2c(N)nc3ccccc3c2n1CCCNOC
14 | 78 to 80 | O=C1c2ccccc2C(=O)N1CCCOc1cccc(CO)c1
15 | 79.5 to 80 | CC(C)(C)C(=O)c1ccc(COc2ccccc2)cc1
16 | 325 | CCn1cc(C(=O)O)c(=O)c2cc(Cl)c(N3CCCC3)cc21
17 | 181 | CCOC(=O)N1CCC(Nc2nc3ccccc3n2Cc2ccc(F)cc2)CC1
18 | 284 to 285 | CNC(=O)c1cc2c(nc(C)n2C)c(O)c1CCC(=O)c1ccccc1
19 | 209 to 210 | CCCSc1cc(C(=O)O)cc(S(N)(=O)=O)c1Oc1ccccc1
20 | 112 to 114 | CC1(c2ccc(OCc3ccccc3[Si](C)(C)C)cc2)OC(=O)N(Nc2ccccc2)C1=O (centres undefined)
21 | 86 to 88 | CC1(C)CC(=O)N(C(=O)OCc2ccccc2)CC(C)(C)N1
22 | 185 | Cc1c(C(=O)Nc2ccc(N3CCCC3)c(C#N)c2)cnn1-c1ccc(F)cc1
23 | 168 to 170 | COc1ccc(C(Sc2cc(Oc3ccccc3)ccc2N)C(O)C(=O)O)cc1Cl (centres undefined)
24 | 136 to 137 | CN1CCN(c2cccc3c2C[C@H](NC(=O)c2cccc(Oc4ccccc4)c2)CC3)CC1
25 | 225 | CCc1ccccc1NC=C1C(=O)N(c2ccc(C(N)=O)cc2)N=C1C
26 | 153 to 155 | COc1ccc(S(=O)(=O)c2cnc(C)nc2Nc2c(C)cc(C)cc2C)cc1
27 | 154 to 155 | O=C(Nc1ccc(-n2nc(C(F)(F)F)cc2OC(F)F)cc1)c1ccncc1

Row | melting point [°C] | SMILES
28 | 102 to 104 | CC(=O)Nc1nc(CCc2ccc(N)cc2)cs1
29 | 226 to 228 | COc1cc2c(cc1OC)-c1cc(OC)c(OC)cc1C2=Cc1ccnc2ccccc12
30 | 119 to 125 | CCOC(=O)NC(CCc1ccccc1)P(C)(=O)O (centres undefined)
31 | 200 to 201 | CCc1nc2c([nH]1)C(=O)N(C)CN2c1ccc(Cl)cc1Cl
32 | 300 to 302 | CCCCCCc1ccc(C=Cc2cc3cc4ccccc4cc3s2)cc1
33 | 204 to 206 | COc1ccc2c(c1)Nc1cccc(S(C)(=O)=O)c1S2
34 | 158 to 159 | O=c1c(CO)csc2ccc3ccccc3c12
35 | 223 to 224 | CCOC(=O)Nc1ccc2nc(S(N)(=O)=O)sc2c1
36 | 196 to 200 | NC(=O)CN1C(=O)[C@@H](N)[C@H](c2ccccc2)Sc2ccccc21 (relative stereo)
37 | 112 to 114 | CCOC(=O)c1ccccc1OCC(O)COc1ccc(F)cc1 (centres undefined)
38 | 173 to 174 | CC(C)Cn1c(CNC(=O)OC(C)(C)C)c(OCCCC(F)(F)F)c2cc(O)ccc2c1=O
39 | 153 to 158 | CCOC(=O)C1=C(COCc2cc(=O)n(C)c(C)n2)NC(C)=C(C(=O)OC)C1c1cccc(Cl)c1Cl (centres undefined)
40 | 156 to 157 | Cc1oc(-c2ccccc2)nc1Cc1cc2cc(/C=C/CO)ccc2o1
41 | 84 | COC(=O)c1ccc2c(C(=O)c3ccccc3)c(C(=O)OC)ccc2c1
42 | 163 to 164 | COc1cc(COc2nc(-c3ccccc3)ncc2C(=O)O)ccc1OCc1nc(-c2ccco2)oc1C
43 | 65 to 70 | CCOCCn1c(C(=O)C2CCN(CCC3(c4ccccc4)CCN(C(=O)c4cc(OC)c(OC)c(OC)c4)C3)CC2)nc2ccccc21 (centres undefined)
44 | 248 to 249 | Cc1cc(Oc2ccc(S(C)(=O)=O)nc2)cc2cc(C3=NCC(CC(=O)O)S3)[nH]c12 (centres undefined)
45 | 215 to 217 | COc1ccc(C=CC2=NN(c3ccc([N+](=O)[O-])cc3)C(c3ccc(OC)c(O)c3)C2)cc1O (centres undefined)
46 | 158 to 159 | COC(=O)c1ccc([N+](=O)[O-])cc1-n1c(CCl)nc2ccccc2c1=O
47 | 277 to 279 | Cc1c(O)c(=O)[nH]c2cc(Cl)ccc2c1=O
48 | 151 | COC(=O)c1ccc(C(O)c2cccnc2)cc1 (centres undefined)
49 | 214 to 215 | COc1ccccc1-c1cc(C(=O)O)cc(-n2cnnn2)c1
50 | 198 | Cc1cccc(NC(=O)NC(Cc2ccccc2)C(=O)N(CC(=O)OC(C)(C)C)c2ccccc2)c1 (racemic)
51 | 78 to 82 | CCc1c2n(c3ccccc13)C(=O)C(Cc1ncn(C(c3ccccc3)(c3ccccc3)c3ccccc3)c1C)CC2 (centres undefined)
52 | 204 | CCC(=O)OC(CC)c1nc2c(C(F)(F)F)cccc2c(O)c1C(=O)Nc1ccccn1 (centres undefined)
53 | 228 to 230 | COc1ccc(C(=O)Nc2nc3ccc(N)cc3c(NCc3ccccc3)c2C#N)cc1

More lines, now with the values behind:

Row | SMILES | melting point [°C]
54 | CCN(CC)CCNC(=O)c1ccc2cncc(I)c2n1 | 44 to 46
55 | CC(C)(C)C(O)(C=Cc1ccc(Cl)cc1)n1cncn1 (centres undefined) | 139 to 141
56 | c1c(NC23CC4CC(CC(C4)C2)C3)nc(N2CCCC2)nc1N1CCNCC1 | 152 to 156
57 | CCOCc1nc2c(N)nc(C)cc2n1CC(C)C | 72 to 74
58 | O=C(Cc1ccccc1)OC1c2ccccc2C(=O)N1c1ccc2ccc(Cl)nc2n1 (centres undefined) | 222 to 224
59 | O=C(N1CCOCC1)N1Cc2c(-c3noc(C4CC4)n3)ncn2-c2ccccc21 | 198
60 | CCCCCCCOc1ccc(C(=O)O)c(Cl)c1 | 76 to 78
61 | O=C(O)CCCCNC(=O)NCCCCC1CCSS1 (centres undefined) | 125 to 132
62 | Nc1nc(N)c(-c2cc(Cl)cc(Cl)c2Cl)c(C(Cl)(Cl)Cl)n1 | 226 to 227
63 | COc1ccccc1NC(=O)Nc1nc(Nc2ccccc2-c2ccccc2)nc(N(CCC(=O)O)Cc2ccc(C(F)(F)F)cc2)n1 | 125 to 128
64 | COc1cc(Nc2c(C#N)cnc3cc(C#CCN4CCN(C)CC4)sc23)cc(OC)c1OC | 180 to 182
65 | Cc1cc(Br)ccc1S(N)(=O)=O | 179 to 180
66 | Cc1[nH]n(C2CCCC2O)c2nc(-c3ccncc3)nc(=O)c1-2 (centres undefined) | 281 to 283
67 | CN1C(C)(C)CC(O)CC1(C)C | 70 to 71
68 | Cc1c(F)c(Br)cc(Br)c1C(=O)O | 144 to 146
69 | N#Cc1ccc(N2CCC(CCCO)CC2)c2ccccc12 | 114 to 115
70 | O=C(O)c1ccc(OCCCCCCc2ccc3cc(OCc4ccccc4)c(OCc4ccccc4)cc3c2)cc1 | 153 to 155
71 | Clc1nc(Cl)nc(N2CC3CCC(CC3)C2)n1 | 153 to 154
72 | C=CCNc1nc(N(CC=C)CC=C)nc2ccc(Cl)cc12 | 73 to 74
73 | O=C(O)CN(CC(CO)N(CCCO)CC(=O)O)CC(CO)N(CCCO)CC(=O)O (centres undefined) | 173 to 177
74 | CC(C)OC(=O)c1cnc(C(=O)O)cn1 | 149 to 152
75 | ON=Cc1c(O)ccc2c1OCO2 | 161 to 162
76 | CCCCCCCCS(=O)c1ccc(CC(COC(C)=O)(COC(C)=O)NC(C)=O)cc1 (centres undefined) | 70 to 72

Row | SMILES | melting point [°C]
77 | COc1c(C=Cc2ccc(C=CC3=C(C#N)C(=C(C#N)C#N)OC3(C)C(F)(F)F)s2)cc2c3c1CCCN3CCC2 (centres undefined) | 159 to 161
78 | CCOc1nsc(NC(=O)N(C)C)c1C(N)=O | 172
79 | CCCCCCOc1ccc(C=[N+]([O-])C(C)(C)C)cc1OCC | 35.5
80 | Cc1c(F)c(N2CCC(N)C2)cc2c1c(=O)c(C(=O)O)cn2C1CC1 (centres undefined) | > 300
81 | CCCCN(CCCC)c1ccc(C=CC2=CC(=CC=CC3=C(C#N)C(=C(C#N)C#N)OC3(C)C)CC(C)(C)C2)c(OC)c1 | 228 to 230
82 | O=C1Cc2cnccc2N1 | > 250
83 | COc1ccc(C[C@H]2Cc3cc(C)cnc3[C@H](C)C2)cc1 | 218 to 222
84 | CCN(C(=O)C(C)Cl)c1cn(-c2cccnc2)nc1Cl (centres undefined) | 94 to 105
85 | COc1cc(N)c(Cl)cc1-c1nn(C2CC3CCC(C2)N3C)c(=O)o1 (centres undefined) | 208
86 | N#Cc1nn(-c2c(Cl)cc(C(F)(F)F)cc2Cl)cc1OC(F)(F)C(F)Cl (racemic) | 99 to 101
87 | O=C1CCCc2[nH]c3c(F)cccc3c21 | 222 to 224
88 | COc1cc2c(Nc3ccc(Cl)cc3F)ncnc2cc1OCCN(C)c1cc(C)nc(C)c1 | 208 to 212
89 | O=Cc1c(F)cc(Br)cc1Br | 57 to 58
90 | CCOC(=O)c1cc(NC(C)=O)cnc1C(=O)OCC | 108 to 110
91 | c1cncc(-c2nncs2)c1 | 78 to 79
92 | CCC(C)(C)c1cccc(NC=O)c1Br | 88 to 89
93 | Cc1cccc(NC(=O)NC2N=C(c3ccccc3)c3ccccc3N(Cc3cc(C)ccn3)C2=O)c1 (racemic) | 212 to 213
94 | CCS(=O)(=O)Nc1nc(CCCN2CCN(C(c3ccccc3)c3ccccc3)CC2)cs1 | 162 to 164
95 | Nc1nc(O)c2ncn(C=C3CC3CO)c2n1 (centres undefined) | 218 to 221
96 | N#Cc1ccc(-c2csc(N3C(=O)OCC34CC4)n2)cc1 | 219 to 221
97 | CCCN(CCC)c1ccc(NC(=O)N(C[C@H]2CC[C@H](CN(C(=O)Nc3ccc(N(CCC)CCC)cc3)C3CCCCC3)CC2)C2CCCCC2)cc1 | 147 to 150
98 | CSCc1ccccc1S(N)(=O)=O | 119 to 124
99 | CC(C)CCCC(C)CCCC(C)CCOc1ccc(C(=O)O)o1 (centres undefined) | 70 to 73
